Assay in all cases: inhibition of tumour cell growth, NCI panel, 48 h
For assay [1], the system named is K-562 leukemia.
The test system of assay [2] is M14 melanoma.
Assay [3] concerns TK-10 renal.
Assay [4] has as its system SW-620 colon.
Assay [5] has as its system COLO 205 colon.
For assay [6], the system named is SF-295 CNS.
The subject of assay [7] is HT29 colon.
In assay [8] the test system is SK-MEL-28 melanoma.
The subject of assay [9] is SF-539 CNS.
The subject of assay [10] is NCI-H522 lung.
Assay [11] concerns PC-3 prostate.
In assay [12] the test system is A549 NSCLC.
Assay [13] deals with LOX IMVI melanoma.
The test system of assay [14] is MDA-MB-231 breast.

The structures appear in SMILES notation.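 Method: 48-hour compound exposure of cells in 96-well plates, five concentrations, linear interpolation of endpoints. The concentration for full growth arrest is given as TGI.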

`COc1cc2c(cc1C)NC(=O)/C2=C\c1cccnc1`: the TGI in [1] is greater than 100 µM; in [2], 77 µM; in assay [3], 31.7 µM; in assay [4], 84.8 µM; in [5] it was 39.8 µM; in assay [6], 35 µM. Moreover, the TGI in assay [7] was greater than 100 µM; in assay [8] it was greater than 100 µM; in [9], 51.7 µM; in assay [10] it was 70.2 µM; in [11], greater than 100 µM; in assay [12], 71.7 µM. In addition, in assay [13], the TGI is greater than 100 µM.
For the compound `Cc1ccc(-n2nnc3c(NNc4ccccc4)n[nH]c(=O)c32)cc1`, the TGI in [1] is greater than 100 µM; in assay [2] it was greater than 100 µM; in assay [3], 75.4 µM; in assay [5], greater than 100 µM; in [6] it was greater than 100 µM; in [7], greater than 100 µM. The TGI in [8], in assay [14], in assay [9], in [10], in assay [11] and in [12] was greater than 100 µM throughout. The same compound yielded a TGI in assay [13] greater than 100 µM.
Consider `CCCOP1(=O)C=C(C)C(Cl)=C(C)C1` (centres undefined), for which the TGI is greater than 100 µM in [1]; 32.5 µM in assay [2]; 63.9 µM in assay [3]; 35.5 µM in [4]; 24.4 µM in assay [5]; greater than 100 µM in assay [6]. Besides, the TGI in [7] was 49.3 µM; in assay [8] it was 43.5 µM; in assay [9], 63.8 µM; in [10] it was 28.5 µM; in assay [12] it was 61.3 µM; in assay [13] it was 36.1 µM.
Regarding `CC(SC(=S)N1CCCC1)C(=O)Nc1nnc(-c2ccc(Cl)cc2)o1` (centres undefined), the TGI in assay [1] was 78.7 µM; in assay [2] it was 37.1 µM; in [3], greater than 100 µM; in assay [4] it was greater than 100 µM; in assay [5] it was greater than 100 µM; in assay [7] it was 51 µM. For the same compound, the TGI in assay [8] is greater than 100 µM; in [14], greater than 100 µM; in assay [9] it was greater than 100 µM; in [11], greater than 100 µM; in assay [12] it was greater than 100 µM; in assay [13], 54.8 µM.
With `COC(=O)CC[N+]1([O-])CC1`, the TGI in [2], in assay [3], in assay [4], in assay [5], in assay [6] and in assay [7] was greater than 100 µM each time. In addition, the TGI in assay [8], in assay [14], in assay [9], in assay [12] and in [13] was greater than 100 µM throughout.
Take `CC12CC(=O)OC(Cc3ccccc31)O2` (centres undefined): the TGI in assay [1], in assay [2], in assay [3], in assay [4], in [5] and in [6] was greater than 100 µM throughout. Also, the TGI in assay [7], in assay [8], in assay [9], in assay [10], in assay [12] and in [13] was greater than 100 µM each time.
As for `CN1NC2=NCCN=C3NN(C)C(=NCCN=C1S2)S3`, the TGI in assay [1], in assay [2], in assay [4], in [5], in [6] and in assay [7] was greater than 100 µM in each case. Also, the TGI in assay [8], in assay [9], in assay [10], in assay [12] and in assay [13] was greater than 100 µM throughout.
Take `CC[N+](C)(C)c1ccc(C(=C2C=CC(=[N+](C)C)C=C2)c2ccc(N(C)C)cc2)cc1`: the TGI in assay [1] is 15.2 µM; in assay [2], 31.4 µM; in assay [3], 97.6 µM; in assay [4] it was 52.1 µM; in assay [5], greater than 100 µM; in [6], 70.1 µM. The TGI in [7] was 30.6 µM; in assay [8], 52.4 µM; in [9] it was 50.4 µM; in [10], 9.37 µM; in [12], greater than 100 µM; in assay [13], 24.2 µM.
Regarding `N#Cc1cccc(Nc2ccccc2SSc2ccccc2Nc2cccc(C#N)c2)c1`, the TGI in assay [1] was greater than 21.5 µM; in assay [2] it was 18.6 µM; in [3], greater than 21.5 µM; in assay [4], 9.19 µM; in assay [6], greater than 21.5 µM; in assay [7] it was 15.3 µM. The TGI was greater than 21.5 µM in assay [8]; greater than 21.5 µM in [14]; 17.4 µM in assay [9]; 12.2 µM in assay [10]; 13.9 µM in assay [11]; greater than 21.5 µM in [12]. In assay [13], this compound came in with a TGI of 8.88 µM.

(Values after PubChem BioAssay (NCI).)
